Patent publication US10233186B2, “Inhibitors of activin receptor-like kinase” (BLUEPRINT MEDICINES CORPORATION, priority 2016, dated 2019)

Legend:
[1] = target: T1, ALK2 R206H (GST-tagged mutant ALK2) (Homo sapiens, UniProt Q04771, R206H); assay: ALK binding assay (LANTHASCREEN TR-FRET competitive binding, displacement of Kinase Tracer 178); settings: ALK2 R206H, LANTHASCREEN TR-FRET competitive binding; read-out: Binding Assay (IC50)
T1 construct: purchased Carna Bioscience or ThermoFisher 09-148 or PV6232
T1 sequence (Q04771 21-509 R206H): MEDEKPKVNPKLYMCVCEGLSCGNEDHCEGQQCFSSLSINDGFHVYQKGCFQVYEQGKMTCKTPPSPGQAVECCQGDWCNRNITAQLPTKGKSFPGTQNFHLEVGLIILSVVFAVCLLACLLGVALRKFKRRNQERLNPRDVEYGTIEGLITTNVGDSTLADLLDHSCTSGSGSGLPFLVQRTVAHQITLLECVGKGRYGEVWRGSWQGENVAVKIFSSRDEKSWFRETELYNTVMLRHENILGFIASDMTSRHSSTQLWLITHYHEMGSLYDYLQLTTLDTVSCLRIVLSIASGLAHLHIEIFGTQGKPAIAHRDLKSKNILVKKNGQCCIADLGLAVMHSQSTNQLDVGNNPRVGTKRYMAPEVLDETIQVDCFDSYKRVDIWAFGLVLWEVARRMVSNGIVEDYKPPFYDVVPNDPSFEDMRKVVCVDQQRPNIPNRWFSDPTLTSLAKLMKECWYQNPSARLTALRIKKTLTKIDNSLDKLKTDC

human ALK2 R206H = target: T2, human ALK2 R206H (Homo sapiens, UniProt Q04771, R206H); assay: Cell-based ALK2-R206H cell activity assay (Smad1-Ser463/Ser465 phosphorylation by AlphaLISA in HEK293-ALK2-R206H cells); settings: read-out: Cell Line (Cell Assay IC50)
T2 construct: expressed in transfected cells; host or cells: HEK293 (ATCC CRL1573), lentivirus transduction, blasticidin selection
T2 sequence (Q04771 21-509 R206H): T1 sequence (Q04771 21-509 R206H)
In short: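 Stable HEK293 cells expressing C-terminally FLAG-tagged human ALK2 R206H (lentiviral, blasticidin-selected) were treated with compounds in 10-point, 3-fold dilutions from 10 μM or 1 μM top, in duplicate. Smad1 Ser463/Ser465 phosphorylation was read by AlphaLISA.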

| Compound | IC50 [1] [nM] | IC50 (human ALK2 R206H) [nM] |
| --- | --- | --- |
| CCN1CCC(c2ccc(-c3cc4c(N5CCN(C(=O)C6CC6)CC5)ccnn4c3)cc2)C(F)(F)C1 (stereo not shown) [Compound 355] | 10 to 50 | > 500 |
| CN1CCN(c2ccc(-c3cc4c(N5CCN(C(=O)C6CCC6)CC5)ccnn4c3)cc2)CC1 [Compound 212] | < 10 | 100 to 500 |
| CCOC(=O)N1CCN(c2ccnn3cc(-c4ccc([C@H]5CCCN(C(C)C)C5)cn4)cc23)CC1 [Compound 545] | < 10 | < 100 |
| CCNC(=O)N1CCN(c2ccnn3cc(-c4ccc([C@]5(F)CCCNC5)cc4)cc23)CC1 [Compound 188] | < 10 | < 100 |
| CC(C)NC(=O)N1CCN(c2ccnn3cc(-c4ccc([C@@]5(C)CCCN5C(C)C)cc4)cc23)CC1 [Compound 582] | < 10 | < 100 |
| CCN1CCC(c2ccc(-c3cc4c(N5CCN(C(=O)C6CC6)CC5)ccnn4c3)cc2)C(F)C1 (stereo not shown) [Compound 278] | < 10 | < 100 |
| O=C(C1CC1)N1CCN(c2ccnn3cc(-c4ccc(C5(F)CCCNC5)cc4)cc23)CC1 (stereo not shown) [Compound 177] | < 10 | < 100 |
| CC(C)N1CCC(c2ccc(-c3cc4c(N5CCN(C(=O)NC6COC6)CC5)ccnn4c3)cc2)CC1 [Compound 627] | < 10 | < 100 |
| CC(C)N1CCC(c2ccc(-c3cc4c(N5CCN(C(=O)NC6CCC6)CC5)ccnn4c3)cc2)CC1 [Compound 380] | < 10 | < 100 |
| CC(N)(CO)c1ccc(-c2cc3c(N4CCN(C(=O)OC5COC5)CC4)ccnn3c2)cc1 (stereo not shown) [Compound 771] | < 10 | < 100 |
| CCC(=O)N1CCN(c2ccnn3cc(-c4ccc(N5CCN(CC)CC5)cc4)cc23)CC1 [Compound 173] | 10 to 50 | > 500 |
| O=C(C1CC1)N1CCN(c2ccnn3cc(-c4ccc(N5CCNC6(COC6)C5)cc4)cc23)CC1 [Compound 260, (4-(6-(4-(2-oxa-5,8-diazaspiro[3.5]nonan-8-yl)phenyl)pyrrolo[1,2-b]pyridazin-4-yl)piperazin-1-yl)(cyclopropyl)methanone] | < 10 | 100 to 500 |
| CC(C)N1CCCCC1c1ccc(-c2cc3c(N4CCN(C(=O)C5CC5)CC4)ccnn3c2)cc1 (stereo not shown) [Compound 257] | < 10 | < 100 |
| CC(C)NC(=O)N1CCN(c2ccnn3cc(-c4ccc([C@]5(C)CN(C(C)C)CCN5)cc4)cc23)CC1 [Compound 634] | < 10 | < 100 |
| CC(C)NC(=O)N1CCN(c2ccnn3cc(-c4ccc(C5(C)CCNCC5)cc4)cc23)CC1 [Compound 492] | < 10 | < 100 |
| CCOC(=O)N1CCN(c2ccnn3cc(-c4ccc(N5CC6(C5)CN(C(C)C)C6)cc4)cc23)CC1 [Compound 338] | < 10 | 100 to 500 |
| COC1(c2ccc(-c3cc4c(N5CCN(C(=O)OC6COC6)CC5)ccnn4c3)cc2)CCN(C(C)C)CC1 [Compound 713] | < 10 | < 100 |
| CC(C)NC(=O)N1CCN(c2ccnn3cc(-c4ccc([C@]5(C)CCCN5C(C)C)cc4)cc23)CC1 [Compound 581] | < 10 | < 100 |
| O=C(C1CC1)N1CCN(c2ccnn3cc(-c4ccc(C5CNC5)cc4)cc23)CC1 [Compound 102] | < 10 | 100 to 500 |
| [2H]C([2H])([2H])C([2H])([2H])OC(=O)N1CCN(c2ccnn3cc(-c4ccc([C@@]5(OCC)CCCNC5)cn4)cc23)CC1 [Compound 793] | < 10 | < 100 |
| CCN1CCC(c2ccc(-c3cc4c(N5CCN(C(=O)N6CC(O)C6)CC5)ccnn4c3)cc2)CC1 [Compound 337] | < 10 | < 100 |
| CCN1CCN(c2ccc(-c3cc4c(N5CCN(C(=O)C6CC6)CC5)ccnn4c3)cn2)CC1 [Compound 221] | < 10 | 100 to 500 |

| Compound | IC50 [1] [nM] | IC50 (human ALK2 R206H) [nM] |
| --- | --- | --- |
| CC(C)N1CCC[C@@H](c2ccc(-c3cc4c(N5CCN(C(=O)OC(CO)CO)CC5)ccnn4c3)cc2)C1 [Compound 837] | < 10 | 100 to 500 |
| CCN1CCC(c2ccc(-c3cc4c(N5CCN(C(=O)C6CCC(C)(O)CC6)CC5)ccnn4c3)cc2)CC1 (stereo not shown) [Compound 431] | < 10 | 100 to 500 |
| CC(C)N1CCN(c2ccc(-c3cc4c(N5CCN(C(=O)C6CC6)CC5)ccnn4c3)cc2)CC1 [Compound 261] | < 10 | < 100 |
| CCOC(=O)N1CCN(c2ccnn3cc(-c4ccc([C@H]5CCCN(C(C)C)C5)cc4)cc23)CC1 [Compound 288] | < 10 | < 100 |
| CC(C)N1CCCC(c2ccc(-c3cc4c(N5CCN(C(=O)C6CCC6)CC5)ccnn4c3)cc2)C1 (stereo not shown) [Compound 312] | < 10 | < 100 |
| CCOC(=O)N1CCN(c2ccnn3cc(-c4ccc([C@@]5(F)CCCNC5)cc4)cc23)CC1 [Compound 480] | < 10 | < 100 |
| CCO[C@@]1(c2ccc(-c3cc4c(N5CCN(C(=O)NC(C)C)CC5)ccnn4c3)nc2)CCCN(C(C)C)C1 [Compound 716] | < 10 | < 100 |
| CO[C@@]1(c2ccc(-c3cc4c(N5CCN(C(=O)[C@H]6C[C@H](C#N)C6)CC5)ccnn4c3)cc2)CCCNC1 [Compound 809] | < 10 | < 100 |
| CC(C)N1CCC[C@](F)(c2ccc(-c3cc4c(N5CCN(C(=O)OC6COC6)CC5)ccnn4c3)cc2)C1 [Compound 691] | < 10 | < 100 |
| O=C(OC1COC1)N1CCN(c2ccnn3cc(-c4ccc([C@@H]5CCCNC5)cc4)cc23)CC1 [Compound 774] | < 10 | < 100 |
| O=C([C@H]1CC[C@H](O)CC1)N1CCN(c2ccnn3cc(-c4ccc(C5CNCCO5)cc4)cc23)CC1 (stereo partly shown) [Compound 343] | < 10 | 100 to 500 |
| CO[C@]1(c2ccc(-c3cc4c(N5CCN(C(=O)NC(C)C)CC5)ccnn4c3)nc2)CCCNC1 [Compound 784] | < 10 | < 100 |
| CC(C)N1CCC[C@H](c2ccc(-c3cc4c(N5CCN(C(=O)[C@H]6C[C@H](C#N)C6)CC5)ccnn4c3)nc2)C1 [Compound 654] | < 10 | < 100 |
| CCOC(=O)N1CCN(c2ccnn3cc(-c4ccc(C5(OC)CCN(C(C)C)CC5)cc4F)cc23)CC1 [Compound 701, ethyl 4-(6-(2-fluoro-4-(1-isopropyl-4-methoxypiperidin-4-yl)phenyl)pyrrolo[1,2-b]pyridazin-4-yl)piperazine-1-carboxylate] | < 10 | < 100 |
| CC(C)N1CC2(CN(c3ccc(-c4cc5c(N6CCN(C(=O)[C@H]7CC[C@H](O)CC7)CC6)ccnn5c4)cc3)C2)C1 [Compound 441] | < 10 | < 100 |
| CC(C)N1CCCC(c2ccc(-c3cc4c(N5CCN(C(=O)[C@H]6C[C@H](O)C6)CC5)ccnn4c3)cc2)C1 (stereo partly shown) [Compound 381] | < 10 | < 100 |
| CC(C)(C)OC(=O)N1CCC(N)(c2ccc(-c3cc4c(N5CCN(C(=O)C6CC6)CC5)ccnn4c3)cc2)CC1 [Compound 732] | < 10 | 100 to 500 |
| CCN1CCN(c2ccc(-c3cc4c(N5CCN(C(=O)C6CC6(F)F)CC5)ccnn4c3)cc2)CC1 (stereo not shown) [Compound 361] | < 10 | 100 to 500 |
| CC(C)N1CC[C@@H](c2ccc(-c3cc4c(N5CCN(C(=O)C6CC6)CC5)ccnn4c3)nc2)C1 [Compound 485] | < 10 | < 100 |
| CCNC(=O)N1CCN(c2ccnn3cc(-c4ccc([C@H]5CCN(C(C)C)C5)cc4)cc23)CC1 [Compound 225] | < 10 | < 100 |
| CC(C)N1CCC(c2ccc(-c3cc4c(N5CCN(C(=O)C6CC6)CC5)ccnn4c3)nc2)CC1 [Compound 266] | < 10 | < 100 |
| O=C(C1CC1)N1CCN(c2ccnn3cc(-c4cnn(C5CCCC5)c4)cc23)CC1 [Compound 103] | 10 to 50 | > 500 |
